For 15 compounds, TGI and GI50 results are on record in PubChem BioAssay (NCI).

Among the test systems are SN12C renal; SK-MEL-28 melanoma; U251 CNS; SK-MEL-5 melanoma; CCRF-CEM leukemia; BT-549 breast; MALME-3M melanoma; SF-268 CNS; RPMI-8226 leukemia; HL-60(TB) leukemia.
What all share (experiment): NCI anticancer screen, dose series, 48 h

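Grown in 96-well plates, cells were treated for 48 hours with each compound at five concentrations. Insufficient inhibition: endpoint recorded as highest concentration tested. The concentration for 50% growth inhibition is given as GI50. Definition used: TGI = concentration required for complete inhibition of growth.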

As to `CCn1c(=O)c2c3ccc(OC(C)=O)cc3[nH]c2c2ccc(OC(C)=O)cc21`, the TGI with SN12C renal, in the test with SK-MEL-28 melanoma, with U251 CNS, in the test with SK-MEL-5 melanoma, in the test with CCRF-CEM leukemia and in the test on BT-549 breast was > 100 µM each time. Besides, the TGI in the test on MALME-3M melanoma and in the test with SF-268 CNS was > 100 µM in each case.
Turning to `CC1=CC[C@](C)(O)[C@@]2(C)CC[C@H]3C(=C(C)C)C(=O)C[C@]3(C)C[C@H]12`, the TGI is > 50 µM with SN12C renal; > 50 µM with SK-MEL-28 melanoma; > 50 µM with U251 CNS; > 50 µM in the test with SK-MEL-5 melanoma; 34.2 µM with CCRF-CEM leukemia; 26.2 µM in the test with RPMI-8226 leukemia. Besides, the TGI with HL-60(TB) leukemia is 16.4 µM; in the test on BT-549 breast it was > 50 µM; in the test with SF-268 CNS, > 50 µM.
Consider `COC(=O)/C=C1\C(=O)C=C2[C@@H]3C[C@H]4C[C@H](CC[C@@]4(C)N21)C3(C)NC(C)=O` (stereo not given in full), for which the TGI with SN12C renal was 26.6 µM; in the test with SK-MEL-28 melanoma it was 11.2 µM; in the test on U251 CNS it was > 56.9 µM; in the test on SK-MEL-5 melanoma, > 60 µM; in the test with CCRF-CEM leukemia it was 34.7 µM; in the test with RPMI-8226 leukemia it was > 100 µM. In addition, the TGI in the test with HL-60(TB) leukemia is > 100 µM; in the test with BT-549 breast, 24.8 µM; with SF-268 CNS, 22.9 µM.
With `O=C(O)Cc1ccccc1CCc1ccccc1Cl`, the TGI in the test on SN12C renal, in the test on SK-MEL-28 melanoma, in the test with U251 CNS, with SK-MEL-5 melanoma, with CCRF-CEM leukemia and in the test with RPMI-8226 leukemia was > 100 µM in each case. For the same compound, the TGI with HL-60(TB) leukemia, in the test on MALME-3M melanoma and with SF-268 CNS was > 100 µM throughout.
`COc1ccc(NC(=O)CC(=O)N2N=C(N(c3ccccc3)c3ccccc3)CC2c2ccccc2)cc1` (stereo not given): the TGI in the test on SN12C renal, in the test with SK-MEL-28 melanoma, in the test with U251 CNS, with CCRF-CEM leukemia, with RPMI-8226 leukemia and in the test with HL-60(TB) leukemia was > 100 µM each time. Further, the TGI in the test with SF-268 CNS was > 100 µM.
On to `Cc1cc2nc(-c3c(N)ncc(C#N)c3-c3ccc(Cl)cc3)[nH]c2cc1C`, for which the GI50 with SN12C renal was 31 µM; with SK-MEL-28 melanoma it was 5.8 µM; in the test with U251 CNS it was 5.48 µM; in the test with CCRF-CEM leukemia, 24.6 µM; in the test on RPMI-8226 leukemia, 5.55 µM; in the test on BT-549 breast, 37.6 µM. The GI50 is 14.5 µM in the test with MALME-3M melanoma and 19.8 µM in the test on SF-268 CNS. Besides, the TGI is > 100 µM with SN12C renal; 40.2 µM with SK-MEL-28 melanoma; 21.4 µM with U251 CNS; 33.4 µM in the test with SK-MEL-5 melanoma; > 100 µM with CCRF-CEM leukemia; > 100 µM with RPMI-8226 leukemia. The TGI with BT-549 breast is > 100 µM; in the test with MALME-3M melanoma it was 78.8 µM; in the test with SF-268 CNS, 84.2 µM.
Turning to `C[C@]12CCC(=O)C=C1CC[C@@H]1[C@@H]2[C@@H](O)C[C@@]2(C)[C@H]1CC[C@]2(O)C(=O)COC(=O)CCC1CCCC1`, the TGI in the test with SN12C renal, in the test with SK-MEL-28 melanoma, in the test on U251 CNS, with SK-MEL-5 melanoma, in the test on CCRF-CEM leukemia and in the test on HL-60(TB) leukemia was > 100 µM throughout. For the same compound, the TGI in the test with MALME-3M melanoma and in the test on SF-268 CNS was > 100 µM each time.
Regarding `COC1(OC)C=CC(=O)C=C1`, the TGI amounted to 30.8 µM with SN12C renal; 4.16 µM in the test on SK-MEL-28 melanoma; 4.9 µM with U251 CNS; 46.2 µM in the test on SK-MEL-5 melanoma; 22.4 µM with CCRF-CEM leukemia; 13.5 µM in the test on RPMI-8226 leukemia. The figures for the TGI in the test on HL-60(TB) leukemia, in the test on BT-549 breast and with SF-268 CNS were 15.6 µM, 14.2 µM and 16.7 µM, respectively.
Take `O=c1c(O)cccn1C1OC(CO)C(O)C1O` (stereo not given): the TGI in the test on SN12C renal, in the test on SK-MEL-28 melanoma, in the test with U251 CNS, with CCRF-CEM leukemia, in the test on RPMI-8226 leukemia and with MALME-3M melanoma was > 100 µM throughout. Further, in the test with SF-268 CNS, the TGI was > 100 µM.
In the case of `Cc1cn(CCOCCOC(=O)NC(CCCNC(N)=O)C(=O)O)c(=O)[nH]c1=O` (stereo not given), the TGI in the test on SN12C renal, in the test on SK-MEL-28 melanoma, in the test on U251 CNS, with CCRF-CEM leukemia, with RPMI-8226 leukemia and in the test on HL-60(TB) leukemia was > 100 µM in each case. Moreover, the TGI in the test with BT-549 breast and in the test with SF-268 CNS was > 100 µM in each case.
On to `N#C/C(C(=O)Nc1ccccc1)=C(/N)N1CCCCC1`, for which the TGI in the test on SN12C renal, in the test with SK-MEL-28 melanoma, with U251 CNS, with SK-MEL-5 melanoma, in the test with CCRF-CEM leukemia and with RPMI-8226 leukemia was > 100 µM in each case. Also, in the test with BT-549 breast, the TGI is > 100 µM.
As to `COc1ccc2ccccc2c1CN1CCOCCOCCN(Cc2c(OC)ccc3ccccc23)CCOCCOCC1`, the TGI was > 100 µM in the test with SN12C renal; > 65 µM in the test with SK-MEL-28 melanoma; > 100 µM in the test with U251 CNS; > 53.6 µM in the test on SK-MEL-5 melanoma; > 100 µM in the test on CCRF-CEM leukemia; 73.2 µM with RPMI-8226 leukemia. Also, the TGI in the test with HL-60(TB) leukemia is 53.4 µM; in the test with MALME-3M melanoma, > 63.9 µM; with SF-268 CNS, > 100 µM.
For the compound `COc1ccc(C2SCC(=O)N2NC(=O)C(C)Oc2ccc(Cl)cc2Cl)cc1` (stereo not given), the TGI in the test on SN12C renal is > 100 µM; with SK-MEL-28 melanoma it was 96.3 µM; with U251 CNS it was > 100 µM; in the test on SK-MEL-5 melanoma, > 100 µM; in the test with RPMI-8226 leukemia, > 100 µM; with HL-60(TB) leukemia, 34.8 µM. In addition, the TGI was 52.8 µM with BT-549 breast and > 100 µM in the test on SF-268 CNS.
Consider `N#C/C(=C1/c2cc([N+](=O)[O-])ccc2-c2c1cc([N+](=O)[O-])cc2[N+](=O)[O-])N1CCCCC1`, for which the TGI in the test on SN12C renal, in the test on SK-MEL-28 melanoma, in the test on U251 CNS, in the test with SK-MEL-5 melanoma, in the test with CCRF-CEM leukemia and with RPMI-8226 leukemia was > 100 µM throughout. For the same compound, the TGI with BT-549 breast, with MALME-3M melanoma and with SF-268 CNS was > 100 µM throughout.
`Cc1ccc(/C=C2/NC(=S)SC2=O)cc1`: the TGI is > 100 µM in the test with SN12C renal; > 100 µM in the test with SK-MEL-28 melanoma; > 100 µM in the test on U251 CNS; > 100 µM in the test on SK-MEL-5 melanoma; > 100 µM in the test on HL-60(TB) leukemia; 54.2 µM in the test with BT-549 breast.
